Data reported in patent publication US12011444B2, “N-substituted indole derivatives as PGE2 receptor modulators” (Idorsia Pharmaceuticals Ltd, priority 2015, dated 2024).
pIC50: −log10 of the molar value.

Key:
EP4 = EP4 (Homo sapiens (Human), UniProt P35408); assay: hEP4 cAMP assay (BT549 breast cancer cells, HTRF cAMP); assay type: cell-based; details: antagonistic activity; mean values where measured multiple times
Protocol: Plate is pre-incubated 45 minutes at room temperature. Subsequently, 2.5 microliters of PGE2 (final conc. 6 nM) are transferred into the assay plate. Plate is incubated 30 minutes at room temperature.

EP2 = EP2 (Homo sapiens (Human), UniProt P43116);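 note: antagonism of PGE2-stimulated cAMP accumulation in SF295 human glioblastoma cells with endogenous EP2, cAMP read by HTRF, expressed relative to DMSO control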
Chain of EP2 (P43116 whole entry): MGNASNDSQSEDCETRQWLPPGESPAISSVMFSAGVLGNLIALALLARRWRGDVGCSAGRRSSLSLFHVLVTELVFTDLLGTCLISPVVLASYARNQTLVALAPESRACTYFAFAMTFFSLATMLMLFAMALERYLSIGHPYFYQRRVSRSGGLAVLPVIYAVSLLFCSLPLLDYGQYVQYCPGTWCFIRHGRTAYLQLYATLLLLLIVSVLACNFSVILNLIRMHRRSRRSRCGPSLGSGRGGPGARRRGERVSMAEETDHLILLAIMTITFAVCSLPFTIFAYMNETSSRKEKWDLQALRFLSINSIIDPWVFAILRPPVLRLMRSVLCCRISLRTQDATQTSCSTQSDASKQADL

Chain of EP4 (P35408 whole entry): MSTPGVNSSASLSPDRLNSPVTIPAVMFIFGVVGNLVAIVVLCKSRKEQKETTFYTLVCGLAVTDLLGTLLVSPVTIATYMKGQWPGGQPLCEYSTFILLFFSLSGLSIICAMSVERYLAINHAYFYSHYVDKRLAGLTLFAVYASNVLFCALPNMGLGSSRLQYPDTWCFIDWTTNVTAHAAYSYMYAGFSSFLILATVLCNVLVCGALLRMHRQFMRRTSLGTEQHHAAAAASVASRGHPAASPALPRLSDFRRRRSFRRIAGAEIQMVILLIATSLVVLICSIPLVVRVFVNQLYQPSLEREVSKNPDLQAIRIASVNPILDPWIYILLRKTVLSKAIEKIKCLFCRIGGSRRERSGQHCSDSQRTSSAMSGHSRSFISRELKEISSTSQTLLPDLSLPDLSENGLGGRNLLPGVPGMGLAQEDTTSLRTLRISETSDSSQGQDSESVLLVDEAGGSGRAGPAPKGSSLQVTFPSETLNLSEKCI

`COc1cc(-c2cc(NCCn3c(C)cc4c(F)ccc(F)c43)ncn2)ccc1-c1nnn[nH]1` [Example 747, [2-(4,7-Difluoro-2-methyl-indol-1-yl)-ethyl]-{6-[3-methoxy-4-(1H-tetrazol-5-yl)-phenyl]-pyrimidin-4-yl}-amine] showed a pIC50 (EP4) of 6.50 and a pIC50 (EP2) of 8.52.
`CCCOc1cc(-c2cc(NCCn3c(C)cc4c(C)cc(F)cc43)ncn2)cc(Cl)c1C(=O)O` [compound 523] showed a pIC50 (EP4) of 6.85 and a pIC50 (EP2) of 7.46.
In the case of `Cc1cc2ccccc2n1CCNc1cc(-c2ccc(-c3nnn[nH]3)s2)ncn1` [Example 792, [2-(2-Methyl-indol-1-yl)-ethyl]-{6-[5-(1H-tetrazol-5-yl)-thiophen-2-yl]-pyrimidin-4-yl}-amine], the pIC50 (EP4) was 6.64 and the pIC50 (EP2) was 8.70.
In the case of `COc1ccc(F)c2c1cc(C)n2CCNc1cc(-c2ccc(-c3csc(CC(N)=O)n3)cc2)ncn1` [Example 786, 2-[4-(4-{6-[2-(7-Fluoro-4-methoxy-2-methyl-indol-1-yl)-ethylamino]-pyrimidin-4-yl}-phenyl)-thiazol-2-yl]-acetamide], the pIC50 (EP4) was 6.50 and the pIC50 (EP2) was 7.80.
`COc1cc(F)c(F)c2c1cc(C)n2CCNc1cc(-c2ccc(-c3cncn3C)cc2)ncn1` [compound 641] was tested, and the pIC50 (EP4) was 6.82 and the pIC50 (EP2) was 6.94.
For `COc1cccc2c1cc(C)n2CCNc1cc(-c2ccc(C(=O)O)c(OC(F)(F)F)c2)ncn1` [compound 499], the pIC50 (EP4) was 6.15 and the pIC50 (EP2) was 8.22.
For `Cc1cc2ccccc2n1CCNc1cc(-c2ccc3c(=O)[nH]oc3c2)ncn1` [Example 774, 6-{6-[2-(2-Methyl-indol-1-yl)-ethylamino]-pyrimidin-4-yl}-benzo[d]isoxazol-3-one], the pIC50 (EP4) was 6.20 and the pIC50 (EP2) was 8.40.
`COc1cc(F)cc2c1cc(C)n2CCNc1cc(-c2ccc(-c3ncccn3)cc2)ncn1` [Example 755, [2-(6-Fluoro-4-methoxy-2-methyl-indol-1-yl)-ethyl]-[6-(4-pyrimidin-2-yl-phenyl)-pyrimidin-4-yl]-amine] was tested, and the pIC50 (EP4) was 6.34 and the pIC50 (EP2) was 7.39.
`CCOc1cc(-c2cc(NCCn3c(C)cc4c(OC)cc(F)c(F)c43)ncn2)sc1C(=O)O` [compound 408] showed a pIC50 (EP4) of 8.52 and a pIC50 (EP2) of 8.40.
Work on `CCCc1cc(-c2cc(NCCn3c(C)cc4c(OC(F)(F)F)ccc(F)c43)ncn2)ccc1C(=O)O` [compound 570] yielded a pIC50 (EP4) of 6.51 and a pIC50 (EP2) of 6.11.
For `COc1cc(F)cc2c1cc(C)n2CCNc1cc(-c2ccc3oc(C)nc3c2)ncn1` [compound 687], the pIC50 (EP4) was 6.11 and the pIC50 (EP2) was 7.04.
For `Cc1cc(Cl)cc2c1cc(C)n2CCNc1cc(-c2ccc(C(=O)O)c(CC(C)C)c2)ncn1` [compound 421], the pIC50 (EP4) was 6.47 and the pIC50 (EP2) was 7.22.
Compound `CCOc1cc(-c2cc(NCCn3c(C)cc4c(C)ccc(F)c43)ncn2)ccc1C(=O)NOCc1ccccc1` [Example 768, N-Benzyloxy-2-ethoxy-4-{6-[2-(7-fluoro-2,4-dimethyl-indol-1-yl)-ethylamino]-pyrimidin-4-yl}-benzamide] has a pIC50 (EP4) of 6.03 and a pIC50 (EP2) of 7.46.
In the case of `COc1cccc2c1cc(C)n2CCNc1cc(-c2ccc3c(c2)CN(CC(C)C)C3=O)ncn1` [compound 462], the pIC50 (EP4) was 6.07 and the pIC50 (EP2) was 7.21.
In the case of `CCNc1cc(-c2cc(NCCn3c(C)cc4c(F)ccc(OC)c43)ncn2)ccc1C(=O)O` [compound 399], the pIC50 (EP4) was 6.32 and the pIC50 (EP2) was 7.77.
Compound `CCOc1cc(-c2cc(NCCn3c(C)cc4c(OC)ccc(F)c43)ncn2)ccc1C(=O)NOC(C)C` [Example 770, 2-Ethoxy-4-{6-[2-(7-fluoro-4-methoxy-2-methyl-indol-1-yl)-ethylamino]-pyrimidin-4-yl}-N-isopropoxy-benzamide] has a pIC50 (EP4) of 6.43 and a pIC50 (EP2) of 7.80.
For `CCCOc1cc(-c2cc(NCCn3c(C)cc4c(C)cc(Cl)cc43)ncn2)cc(Cl)c1C(=O)O` [compound 522], the pIC50 (EP4) was 6.66 and the pIC50 (EP2) was 7.68.
`Cc1cc(F)cc2c1cc(C)n2CCNc1cc(-c2ccc3nccnc3c2)ncn1` [compound 733] was tested, and the pIC50 (EP4) was 6.09 and the pIC50 (EP2) was 7.06.
In the case of `CCOc1cc(-c2cc(NCCn3c(C)cc4cc(C)cc(F)c43)ncn2)cc(F)c1C(=O)O` [compound 436], the pIC50 (EP4) was 6.10 and the pIC50 (EP2) was 7.34.
Work on `Cc1ccc(F)c2c1cc(C)n2CCNc1cc(-c2ccc(C(=O)O)c(Oc3ccc(F)cc3)c2)ncn1` [compound 650] yielded a pIC50 (EP4) of 6.35 and a pIC50 (EP2) of 7.03.
With `CCCc1cc(-c2cc(NCCn3c(C)cc4cc(OC)cc(F)c43)ncn2)cc(F)c1C(=O)O` [compound 516] the pIC50 (EP4) was 6.35 and the pIC50 (EP2) was 6.49.
Work on `COc1cc(F)c(F)c2c1cc(C)n2CCNc1cc(-c2ccc3c(ccn3C)c2)ncn1` [compound 707, [2-(6,7-Difluoro-4-methoxy-2-methyl-indol-1-yl)-ethyl]-[6-(1-methyl-1H-indol-5-yl)-pyrimidin-4-yl]-amine] yielded a pIC50 (EP4) of 7.24 and a pIC50 (EP2) of 7.42.
`Cc1noc(-c2ccc(-c3cc(NCCn4c(C)cc5c(C)ccc(F)c54)ncn3)cc2)c1C(=O)O` [compound 477] was tested, and the pIC50 (EP4) was 6.24 and the pIC50 (EP2) was 6.91.
For `CCNc1cc(-c2cc(NCCn3c(C)cc4c(C)ccc(F)c43)ncn2)ccc1-c1nnn[nH]1` [compound 668, {6-[3-Ethylamino-4-(1H-tetrazol-5-yl)-phenyl]-pyrimidin-4-yl}-[2-(7-fluoro-2,4-dimethyl-indol-1-yl)-ethyl]-amine], the pIC50 (EP4) was 7.66 and the pIC50 (EP2) was 8.10.
Compound `Cc1cc(F)c(F)c2c1cc(C)n2CCNc1cc(-c2ccc3[nH]ccc3c2)ncn1` [compound 696, [2-(6,7-Difluoro-2,4-dimethyl-indol-1-yl)-ethyl]-[6-(1H-indol-5-yl)-pyrimidin-4-yl]-amine] has a pIC50 (EP4) of 6.88 and a pIC50 (EP2) of 7.38.
For `COc1ccc(C)c2c1cc(C)n2CCNc1cc(-c2ccc(C(=O)O)c(CC(C)C)c2)ncn1` [compound 507], the pIC50 (EP4) was 6.79 and the pIC50 (EP2) was 7.74.
For `CCCc1cc(-c2cc(NCCn3c(C)cc4c(OC)cccc43)ncn2)cc(F)c1C(=O)O` [compound 445], the pIC50 (EP4) was 6.63 and the pIC50 (EP2) was 8.30.
`CCNc1cc(-c2cc(NCCn3c(C)cc4c5c(cc(Cl)c43)OCO5)ncn2)ccc1-c1nnn[nH]1` [compound 659, [2-(5-Chloro-7-methyl-[1,3]dioxolo[4,5-e]indol-6-yl)-ethyl]-{6-[3-ethylamino-4-(1H-tetrazol-5-yl)-phenyl]-pyrimidin-4-yl}-amine] showed a pIC50 (EP4) of 7.27 and a pIC50 (EP2) of 8.22.
With `CCCc1cc(-c2cc(NCCn3c(C)cc4cc(OC)cc(F)c43)ncn2)ccc1C(=O)O` [compound 443] the pIC50 (EP4) was 6.31 and the pIC50 (EP2) was 6.76.
With `COc1ccc(F)c2c1cc(C)n2CCNc1cc(-c2ccc(-c3nnn[nH]3)s2)ncn1` [Example 793, [2-(7-Fluoro-4-methoxy-2-methyl-indol-1-yl)-ethyl]-{6-[5-(1H-tetrazol-5-yl)-thiophen-2-yl]-pyrimidin-4-yl}-amine] the pIC50 (EP4) was 7.74 and the pIC50 (EP2) was 8.52.
With `COc1cc(F)cc2c1cc(C)n2CCNc1cc(-c2ccc(-c3nc(C)c(C)s3)cc2)ncn1` [Example 760, {6-[4-(4,5-Dimethyl-thiazol-2-yl)-phenyl]-pyrimidin-4-yl}-[2-(6-fluoro-4-methoxy-2-methyl-indol-1-yl)-ethyl]-amine] the pIC50 (EP4) was 6.10 and the pIC50 (EP2) was 7.05.
With `Cc1cc2c(F)c(F)cc(F)c2n1CCNc1cc(-c2ccc(C(=O)O)c(CC(C)C)c2)ncn1` [compound 506] the pIC50 (EP4) was 6.95 and the pIC50 (EP2) was 7.92.
Compound `COc1ccc(F)c2c1cc(C)n2CCNc1cc(-c2ccc(-c3nc(N)sc3C)cc2)ncn1` [compound 458, {6-[4-(2-Amino-5-methyl-thiazol-4-yl)-phenyl]-pyrimidin-4-yl}-[2-(7-fluoro-4-methoxy-2-methyl-indol-1-yl)-ethyl]-amine] has a pIC50 (EP4) of 7.13 and a pIC50 (EP2) of 7.60.
Work on `Cc1ccc(F)c2c1cc(C)n2CCNc1cc(-c2ccc3c(c2)CN(CC(C)C)C3=O)ncn1` [compound 467] yielded a pIC50 (EP4) of 6.00 and a pIC50 (EP2) of 6.41.
In the case of `CCNC(=O)Nc1ccc(-c2cc(NCCn3c(C)cc4c(OC)ccc(F)c43)ncn2)cc1OC` [compound 555, 1-Ethyl-3-(4-{6-[2-(7-fluoro-4-methoxy-2-methyl-indol-1-yl)-ethylamino]-pyrimidin-4-yl}-2-methoxy-phenyl)-urea], the pIC50 (EP4) was 7.55 and the pIC50 (EP2) was 7.64.
With `CCOc1cc(-c2cc(NCCn3c(C)cc4c(C)ccc(F)c43)ncn2)ccc1CNCCOC` [compound 562] the pIC50 (EP4) was 6.26 and the pIC50 (EP2) was 6.44.
`COc1ccc(F)c2c1cc(C)n2CCNc1cc(-c2ccc(-c3ccccn3)cc2)ncn1` [compound 590] showed a pIC50 (EP4) of 6.75 and a pIC50 (EP2) of 7.74.
`COc1ccc(F)c2c1cc(C)n2CCNc1cc(-c2cc(C(F)(F)F)c(C(=O)O)s2)nc(C)n1` [compound 540] gave a pIC50 (EP4) of 7.64 and a pIC50 (EP2) of 7.74.
With `COc1ccc(F)c2c1cc(C)n2CCNc1cc(-c2cccc(-n3cccn3)c2)ncn1` [compound 556] the pIC50 (EP4) was 6.38 and the pIC50 (EP2) was 7.27.
For `COc1cc(-c2cc(NCCn3c(C)cc4c(OC)ccc(Cl)c43)ncn2)cc(C)c1C(=O)O` [compound 404], the pIC50 (EP4) was 6.35 and the pIC50 (EP2) was 7.02.
In the case of `COc1cc(F)cc2c1cc(C)n2CCNc1cc(-c2ccc(-c3ccno3)cc2)ncn1` [compound 743, [2-(6-Fluoro-4-methoxy-2-methyl-indol-1-yl)-ethyl]-[6-(4-isoxazol-5-yl-phenyl)-pyrimidin-4-yl]-amine], the pIC50 (EP4) was 6.50 and the pIC50 (EP2) was 8.00.
Compound `COc1cc(F)cc2c1cc(C)n2CCNc1cc(-c2ccc(C(=O)O)c(NCC(F)(F)F)c2)ncn1` [compound 587, 4-{6-[2-(6-Fluoro-4-methoxy-2-methyl-indol-1-yl)-ethylamino]-pyrimidin-4-yl}-2-(2,2,2-trifluoro-ethylamino)-benzoic acid] has a pIC50 (EP4) of 6.97 and a pIC50 (EP2) of 8.70.
For `Cc1ccc(F)c2c1cc(C)n2CCNc1cc(-c2ccc(C(=O)O)c(NCC(F)(F)F)c2)ncn1` [compound 560, 4-{6-[2-(7-Fluoro-2,4-dimethyl-indol-1-yl)-ethylamino]-pyrimidin-4-yl}-2-(2,2,2-trifluoro-ethylamino)-benzoic acid], the pIC50 (EP4) was 6.97 and the pIC50 (EP2) was 8.15.
